One compound from US4748165A, “Amidine derivatives” (Imperial Chemical Industries PLC, priority 1981, dated 1988) can be followed below.

Structures are written as SMILES.

One data set concerns anaesthetised rats. Kind of data set: intravenous toxicity in anaesthetised rats. Type of data set: in vivo. Conditions: intravenously, two anaesthetised rats, ten times the dose giving approximate 50% inhibition of gastric secretion in the anaesthetised rat. The procedure: (§1) No overt toxicity or side effects were noted during the rat or dog tests. The compounds N-cyano-5-(4-[2-propylguanidino]pyrimid-2-yl)valeramidino was administered intravenously to groups of two anaesthetised rats and four conscious mice at doses which were respectively ten times and one hundred times the dose, in mg./kg., which produced an approximate 50% inhibition of gastric secretion in the anaesthetised rat.

The subject of the next data set is conscious mice. Description: intravenous toxicity in conscious mice. Type of data set: in vivo, mouse. Conditions: intravenously, four conscious mice, one hundred times the dose giving approximate 50% inhibition of gastric secretion in the anaesthetised rat. On the procedure:
as §1

Turning to `CCCN=C(N)Nc1ccnc(CCCCC(=N)NC#N)n1` [Example 2, N-cyano-5-(4-[2-propylguanidino]pyrimid-2-yl)valeramidine], the toxic symptoms entry with anaesthetised rats and in the data set on conscious mice was “No toxic symptoms” in each case.
